From PMC11943303 (International Journal of Molecular Sciences, 2025)
“Also recorded” adds a separate entry of the source. Like-named read-outs stand apart in the source and are kept apart here.

Tests used:
[1] = design: method as in PMID 10777510, PMID 18272843; conditions: isoforms identified in vivo; cited from earlier work
[2] = system: cardiac sodium current (INa); conditions: cited from earlier work
From the text: At this stage, we cannot distinguish how specific affinities of Kv4.2 or Kv4.3 for 2Nal modulate the overall effect on ITo amplitude in native cardiomyocytes. However, our observation of apparent EC50 differing between the peak and sustained co ...

[3] = system: rabbit left-atrium cardiomyocytes; design: method as in PMID 23106642; conditions: cited from earlier work
[4] = system: ultra-rapid potassium current; design: method as in PMID 23106642; conditions: rabbit left-atrium cardiomyocytes; cited from earlier work
[5] = system: large conductance calcium-activated K^+ channels; conditions: cited from earlier work
[6] = system: transient outward potassium current, ITo, and its sustained component, IKsus; design: method as in PMID 18424641, PMID 12215493; conditions: cited from earlier work
artery = conditions: by enhancing nitric oxide (NO) production in the endothelium; cited from earlier work
From the text: (§1) Apelin is an endogenous peptide recognized for its therapeutic potential in hypertension and heart failure, as well as for its modulation of the endocrine system. This adipokine is primarily synthesized in adipose tissue but is also produced in the gastrointestinal tract, brain, kidney, lung, mammary glands, and cardiovascular system.

heart = conditions: cited from earlier work
From the text: as §1

[7] = target: T1, transient outward potassium current, ITo (Rattus norvegicus, UniProt Q62897+Q63881); experiment: ITo current block (dose-response, I/V), whole-cell patch clamp in rat cardiomyocytes; format: cell-based, rat (Sprague Dawley); conditions: 15 min pre-incubation, n = 32, 6 animals; for IC50: Hill equation fit to Gmax,[X]/Gmax,[ctrl], partial block
T1 construct: INa and ITo were recorded from freshly isolated left ventricular cardiomyocytes; endogenous in cells; host or cells: freshly isolated left ventricular cardiomyocytes of adult Sprague Dawley rats
T1 sequence (Q63881 1-630): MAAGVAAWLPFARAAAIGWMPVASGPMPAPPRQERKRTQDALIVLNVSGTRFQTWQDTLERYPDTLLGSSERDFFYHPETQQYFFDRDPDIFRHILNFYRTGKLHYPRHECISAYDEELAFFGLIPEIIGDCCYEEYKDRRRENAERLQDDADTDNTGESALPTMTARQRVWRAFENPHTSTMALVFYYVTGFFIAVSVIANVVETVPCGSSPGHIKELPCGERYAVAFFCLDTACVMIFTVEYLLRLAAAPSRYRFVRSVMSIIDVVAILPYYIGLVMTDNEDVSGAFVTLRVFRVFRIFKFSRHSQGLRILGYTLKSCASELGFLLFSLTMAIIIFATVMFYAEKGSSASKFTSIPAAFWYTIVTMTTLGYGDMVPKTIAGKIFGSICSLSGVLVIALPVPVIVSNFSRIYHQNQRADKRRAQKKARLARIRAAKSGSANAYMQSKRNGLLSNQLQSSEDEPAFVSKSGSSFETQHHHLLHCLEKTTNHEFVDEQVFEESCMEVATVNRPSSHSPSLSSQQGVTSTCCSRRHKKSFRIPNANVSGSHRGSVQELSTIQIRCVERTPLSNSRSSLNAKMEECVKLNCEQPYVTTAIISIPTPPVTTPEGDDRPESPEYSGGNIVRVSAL
T1 sequence (Q62897 1-655): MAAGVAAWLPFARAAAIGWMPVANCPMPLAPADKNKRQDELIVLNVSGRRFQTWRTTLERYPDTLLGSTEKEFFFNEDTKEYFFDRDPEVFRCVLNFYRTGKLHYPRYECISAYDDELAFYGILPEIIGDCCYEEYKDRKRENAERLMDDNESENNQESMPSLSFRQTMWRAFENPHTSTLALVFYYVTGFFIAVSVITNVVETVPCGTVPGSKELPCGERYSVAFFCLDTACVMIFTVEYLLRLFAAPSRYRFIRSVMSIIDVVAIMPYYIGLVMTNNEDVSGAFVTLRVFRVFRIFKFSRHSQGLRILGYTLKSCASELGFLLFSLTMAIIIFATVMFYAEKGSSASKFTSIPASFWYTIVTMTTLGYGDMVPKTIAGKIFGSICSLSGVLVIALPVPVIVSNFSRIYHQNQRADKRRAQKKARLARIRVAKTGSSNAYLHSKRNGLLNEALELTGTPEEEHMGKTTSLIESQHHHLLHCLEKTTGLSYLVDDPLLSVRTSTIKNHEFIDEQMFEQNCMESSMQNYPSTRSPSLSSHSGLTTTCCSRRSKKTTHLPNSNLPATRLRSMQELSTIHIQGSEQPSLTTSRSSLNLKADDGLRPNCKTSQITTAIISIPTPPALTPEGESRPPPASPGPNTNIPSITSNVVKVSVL
T1 sequence (Q9JM59 1-270 partner): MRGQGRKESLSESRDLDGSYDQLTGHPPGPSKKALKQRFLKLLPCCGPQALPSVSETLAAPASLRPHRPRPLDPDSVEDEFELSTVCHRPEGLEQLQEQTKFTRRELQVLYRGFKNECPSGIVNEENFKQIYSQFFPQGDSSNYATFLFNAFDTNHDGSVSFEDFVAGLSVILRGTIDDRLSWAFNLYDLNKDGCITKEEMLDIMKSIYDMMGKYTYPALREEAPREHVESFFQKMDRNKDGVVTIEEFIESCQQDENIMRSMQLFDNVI
Method: Ventricular cardiomyocytes from adult rats were isolated by enzymatic dissociation as previously reported. Adult Sprague Dawley rats (Charles River, Montreal, QC, Canada) were heparinized (5000 U) and sedated with 2% Isoflurane in an oxygen chamber (2 L/min). Hearts were excised by thoracotomy and cannulated via the aorta to be mounted on a Langendorff perfusion apparatus. Hearts were initially perfused with standard calcium-free Tyrode solution [21] at 37 °C (3–5 min), at a rate of 13 mL/min, and pre-digested by perfusion with low-calcium (150 μM) Tyrode solution supplemented with 220–280 U/mg of low-trypsin collagenase type 2 (Worthington Biochemical, Toronto, ON, Canada) for less than 15 min.
Once removed from the Langendorf perfusion apparatus, the heart septum and left ventricle were cut and gently shaken for 3 min in a 50/50 solution (digestion sln/low-calcium Tyrode solution) to disperse the isolated cells. The supernatant of the cell solution was filtered, and cells were left to settle in a 15 mL conical tube. The procedure was repeated 4 times, and cells were divided into fractions. Cardiomyocyte pellets from each fraction were washed with low-calcium Tyrode solution. For the final washing, supernatant solution was removed and replaced by standard Kraftbrühe (KB) solution [21], and the cells were kept at 4 °C.
INa and ITo were recorded from freshly isolated left ventricular cardiomyocytes and TSA201 cells after 48 h of transfection at room temperature. Electrical currents were recorded using the patch-clamp technique in whole-cell configuration via an Axopatch 200B amplifier (Molecular Devices, Sunnyvale, CA, USA). Cardiomyocytes and TSA201 cells were pre-incubated with 2Nal during 15 min and continuously perfused during recordings. In preliminary experiments, we measured the onset of the block by 2Nal by initially superfusing with control solution and subsequently washing in 2Nal solution. Recordings were acquired at 10 kHz and filtered to 5 kHz (lowpass Bessel filter). Whole-cell capacitance and series resistance compensation (85%) were optimized to reduce the capacitive artifact and minimize voltage error. Analysis of the recordings was performed using the Clampex 10.7 analysis software.
Extracellular solution for ITo recordings in cardiomyocytes contained (in mM) 126 NaCl, 5.4 KCl, 1 MgCl2, 20 HEPES, 2 CaCl2, and 11 glucose. The pH and osmolarity were adjusted to 7.4 and 295–300 mOsm, respectively, using NaOH and sucrose. Pipette solution contained (in mM) 90 K-aspartate, 30 KCl, 1 MgCl2, 20 HEPES, 5 NaCl, 5 MgATP, 5.5 Glucose. The pH was adjusted with KOH to 7.3 and osmolarity to 295–300 mOsm. For ITo recordings in TSA201 cells, extracellular solution contained 130 NaCl, 5 KCl, 1 MgCl2, 2.8 Na-acetate, 10 HEPES, 1.8 CaCl2, and 10 glucose. […]

Compound: apelin-36: predominant apelin isoform identified in vivo (LVQPRGSRNGPGPWQGGRRKFRRQRPRLSHKGPMPF; Apelin-36; UniProt Q9ULZ1 42-77, looked up)
- susceptibility to proteolysis [1]: highly susceptible to proteolysis

Compound: apelin
- effect on cardiac sodium current INa [2]: increase in INa; also recorded: modulate cardiac sodium current (INa) gating and enhance its amplitude
- effect on action potential duration [3]: reduces action potential duration (APD)
- effect on ultra-rapid potassium current [4]: blocks the ultra-rapid potassium current
- effect on large conductance calcium-activated K+ channels [5]: inhibiting large conductance calcium-activated K^+ channels
- effect on ITo and IKsus [6]: no effects
- vasodilation (artery): triggers arterial vasodilation
- cardiac inotropic effect (heart): strong positive cardiac inotropic effects

Compound: CSCC[C@H](NC(=O)[C@@H]1CCCN1C(=O)CNC(=O)[C@H](CCCCN)NC(=O)[C@H](Cc1c[nH]cn1)NC(=O)[C@H](CO)NC(=O)[C@H](CC(C)C)NC(=O)[C@H](CCCNC(=N)N)NC(=O)[C@@H]1CCCN1C(=O)[C@H](CCCNC(=N)N)NC(=O)[C@@H](N)CCC(N)=O)C(=O)N1CCC[C@H]1C(=O)N[C@@H](Cc1ccc2ccccc2c1)C(=O)O [2Nal]
- Maximum block of ITo,peak ([7]; peak component, Gmax ratio, holding −80 mV, 500 ms steps, mean ± SEM): 34.2 ± 5.6%
- IC50 ([7]; peak component, read-out: IC50 (half-maximal blocking concentration) for ITo,peak): 0.3 ± 0.1 nM
- Maximum block of ITo,sus ([7]; sustained component, Gmax ratio, holding −80 mV, 500 ms steps, mean ± SEM): 47 ± 9.2%
- IC50 ([7]; sustained component, read-out: IC50 (half-maximal blocking concentration) for ITo,sus): 0.024 ± 0.01 nM
